Experimental data published in US8759308B2, “RNAi probes targeting cancer-related proteins” (The University of British Columbia, priority 2002, dated 2014).
d = 2'-deoxy (DNA); r = 2'-OH (RNA)

Tests used:
[1] = human, in vivo; cited from earlier work
KH OS and U-2 OS cells = assay: DXR effects in OS cells (TUNEL, protein expression); assay type: cell-based, human
Procedure: Sustained silencing of CLU gene expression in OS cells by siRNA results in significant sensitization to apoptosis induced by genotoxic and oxidative stress. Prior to CLU functional assays, we analyzed the DXR effects in OS cells since the drug-related reported effects vary in different cell-types (Gewritz et al., Biochem. Pharmacol. 57: 727-741 (1999)). As the DXR plasma concentration in treated patients fall into a range of 1-2 μM and decline into a range of 0.025-0.25 μM within 1 h (Muller et al, Cancer Chemother. Pharmacol., 32: 379-384 (1993)) cells were treated with 0.35 and 1 μM of DXR. To analyze the extent of the DXR-mediated cell death we scored apoptosis by TUNEL. Attached cells following drug treatment for 24 h underwent significant morphological changes as compared to non-treated control cells. […] On-going apoptosis is also apparent 24 h later, verifying that apoptosis is a dynamic process that continues even after DXR removal from the medium.

clusterin transcript [2] = assay: Clusterin mRNA by Northern blot in MCF-7 cells; assay type: cell-based, human; conditions: 5, 25 or 50 nM, two days
Procedure: MCF-7 human breast cancer cells were transfected with 5, 25 or 50 nM CLU-5 or a scrambled control, or with oligoFECTAMINE™ vehicle alone. Two days after transfection, RNA was extracted and analyzed for clusterin and GAPDH by Northern blotting.

clusterin transcript [3] = assay: Clusterin mRNA by Northern blot in OVCAR3 cells; assay type: cell-based, human; conditions: 1, 10 or 50 nM, two days
Procedure: OVCAR3 ovarian cancer cells were treated once with 1, 10 or 50 nM CLU5, scrambled control or a vehicle only control. An untreated control was also run. After two days, total RNA was extracted and analyzed for clusterin and GAPDH mRNA by Northern blot.

clusterin [4] = assay: Clusterin Western blot in clusterin overexpressing LNCaP/T1 cells; assay type: cell-based, human; conditions: 10 nM, 1 pulse, three days
Procedure: Clusterin overexpressing LNCaP)/T1 cells were transfected (1 pulse) with 10 nM CLU-5 siRNA or scrambled control. Three days after treatment, the proteins were extracted and analyzed by Western blotting for clusterin.

clusterin transcript [5] = assay: Clusterin transcript by Real Time PCR in A549 cells; assay type: cell-based, human; conditions: 10, 50 or 100 nM, two days
Procedure: (§1) PC3 cells were transfected with siRNA at levels of 10, 50 or 100 nM or with 100 nM scrambled control. Two days after transfection, total RNA was extracted and the level of clusterin transcript was quantified by Real Time PCR.
The experiment of Example 9 was repeated using A549 cells in place of PC3 cells.

clusterin transcript [6] = assay: Clusterin transcript by Northern blot in PC3 cells; assay type: cell-based, human; conditions: all doses (10, 50 or 100 nM), two days
Procedure: PC3 cells were treated (1 pulse) with CLU-3 (Seq ID NOs. 5 and 6) or CLU-5 (Seq ID Nos 9 and 10) or with a scrambled control at levels of 10, 50 or 100 nM, or with oligoFECTAMINE™ only. After two days total RNA was extracted and analyzed for clusterin and GADPH by Northern blotting. Densitometric measurement was performed. FIG. 10 presents results of these measurements after normalization to GADPH.

clusterin transcript [7] = assay: Clusterin transcript by Real Time PCR in PC3 cells; assay type: cell-based, human; conditions: 10, 50 or 100 nM, two days
Procedure: as §1

PC3 cells = assay: PC3 cell viability with siRNA and Taxol, MTT assay; assay type: cell-based, human; conditions: 25 nM siRNA, then Taxol three days
Procedure: PC3 cells were treated once with 25 nM human clusterin siRNAs (CLU-3 and CLU-5), a scrambled control, or oligoFECTAMINE™ only. After two days of treatment, the medium was replaced with medium containing various concentrations of Taxol (Paclitaxel). After three days of incubation, cell viability was determined by MTT assay. FIG. 11 summarizes the results.

clusterin [8] = assay: Clusterin Western blot in A549 cells; assay type: cell-based, human; conditions: 10, 50 and 100 nM
clusterin [9] = assay: Clusterin Western blot in MCF-7 cells; assay type: cell-based, human; conditions: 5 and 50 nM, three days
Procedure: MCF-7 cells were transfected with various doses (5 and 50 nM) of CLU-5 siRNA or scrambled control. Three days after treatment, proteins were extracted and analyzed by Western blotting for clusterin levels (MW=40 and 60 kDa).

clusterin transcript [10] = assay: Clusterin mRNA by Northern blot in MDA-MB 231 cells; assay type: cell-based, human; conditions: 5, 50 or 100 nM, two days
Procedure: MDA-MB 231 human breast cancer cells were transfected with 5, 50 or 100 nM CLU-5 or a scrambled control, or with oligoFECTAMINE™ vehicle alone. Two days after transfection, RNA was extracted and analyzed for clusterin and GAPDH by Northern blotting.

clusterin [11] = assay: Clusterin Western blot in PC3 cells; assay type: cell-based, human; conditions: 10, 50 and 100 nM
Procedure: 8 species of siRNA targeting clusterin were formed as double-stranded RNA from Seq. ID NOs. 1 and 2, 3 and 4, 5 and 6, 7 and 8, 9 and 10, 11 and 12, 13 and 14, and 15 and 16, and labeled as CLU1-CLU 8, respectively. PC3 cells were transfected with various doses (10, 50 and 100 nM) of the 8 species of siRNA or scrambled control. Three days after treatment, proteins were extracted and analyzed by Western blotting for clusterin levels (MW=40 and 60 kDa).
Densitometric measurements were performed after normalization to a vinculin control the blots for cells treated with CLU-5 (Seq ID Nos. 9 and 10). “Oligo” cells were treated with oligoFECTAMINE™ only.

| Molecule | plasma concentration [1] | bcl-2 expression (KH OS and U-2 OS cells; KH OS and U-2 OS cells) | accumulation of p53, p21 and bax (KH OS and U-2 OS cells; OS cell lines) | PARP cleavage (KH OS and U-2 OS cells; OS cells after DXR treatment) | apoptosis by TUNEL (KH OS and U-2 OS cells; OS cells, 0.35 and 1 μM DXR, 24 h) | amount of clusterin transcript normalized to GAPDH (clusterin transcript [2]) | amount of clusterin transcript normalized to GAPDH (clusterin transcript [3]) | clusterin detected by Western blot (clusterin [4]) | amount of clusterin transcript (clusterin transcript [5]) | amount of clusterin transcript normalized to GADPH (clusterin transcript [6]) | amount of clusterin transcript (clusterin transcript [7]) | viable cells with siRNA plus Taxol (PC3 cells) | clusterin by densitometry normalized to vinculin (clusterin [8]) | amount of clusterin protein relative to scrambled control (clusterin [9]) | amount of clusterin transcript normalized to GAPDH (clusterin transcript [10]) | clusterin by densitometry normalized to vinculin (clusterin [11]) | amount of clusterin (Western blot) (clusterin [11]; three days) |
| --- | --- | --- | --- | --- | --- | --- | --- | --- | --- | --- | --- | --- | --- | --- | --- | --- | --- |
| COc1cccc2c1C(=O)c1c(O)c3c(c(O)c1C2=O)C[C@@](O)(C(=O)CO)C[C@@H]3O[C@H]1C[C@H](N)[C@H](O)[C@H](C)O1 [DXR] | 1000 to 2000 nM | no altered expression | found only in U-2 OS cells | accompanied by PARP cleavage | a significant number of them are TUNEL positive |  |  |  |  |  |  |  |  |  |  |  |  |
| CLU-5: clusterin siRNA, double-stranded RNA from Seq. ID NOs. 9 and 10 (chain 1 AUGAUGAAGACUCUGCUGCTT; chain 2 GCAGCAGAGUCUUCAUCAUTT; sugars from the 5' end r19 d2, backbone not given here) |  |  |  |  |  | Substantial dose-dependent reduction | Substantial dose dependent reduction | No clusterin was detected | reduction in the amount of clusterin transcript | Reduction in the amount of clusterin transcript | reduction in the amount of clusterin transcript | worked in synergy | dose dependent response | reduction in the amount of clusterin protein | Substantial reduction | dose dependent response | best results |
